From patent US20090299044A1 (priority 2006, published 2009)
Bridge positions count the residues as written; N and C are the ends. Square brackets hold non-standard residues; d marks the D form. Peptide text beside a SMILES is read from it. 1Nal = N[C@@H](Cc1cccc2ccccc12)C(=O)O

Columns and labels:
[1] = molecular target: T1, human Kv1.1 (HEK293) (Homo sapiens, UniProt Q09470); assay: cell-based
T1 construct: expressed in transfected cells; host or cells: HEK293

[2] = molecular target: T2, human Kv1.3 (CHO) (Homo sapiens, UniProt P22001); assay: cell-based
T2 construct: expressed in transfected cells; host or cells: CHO
T2 sequence (P22001 whole entry): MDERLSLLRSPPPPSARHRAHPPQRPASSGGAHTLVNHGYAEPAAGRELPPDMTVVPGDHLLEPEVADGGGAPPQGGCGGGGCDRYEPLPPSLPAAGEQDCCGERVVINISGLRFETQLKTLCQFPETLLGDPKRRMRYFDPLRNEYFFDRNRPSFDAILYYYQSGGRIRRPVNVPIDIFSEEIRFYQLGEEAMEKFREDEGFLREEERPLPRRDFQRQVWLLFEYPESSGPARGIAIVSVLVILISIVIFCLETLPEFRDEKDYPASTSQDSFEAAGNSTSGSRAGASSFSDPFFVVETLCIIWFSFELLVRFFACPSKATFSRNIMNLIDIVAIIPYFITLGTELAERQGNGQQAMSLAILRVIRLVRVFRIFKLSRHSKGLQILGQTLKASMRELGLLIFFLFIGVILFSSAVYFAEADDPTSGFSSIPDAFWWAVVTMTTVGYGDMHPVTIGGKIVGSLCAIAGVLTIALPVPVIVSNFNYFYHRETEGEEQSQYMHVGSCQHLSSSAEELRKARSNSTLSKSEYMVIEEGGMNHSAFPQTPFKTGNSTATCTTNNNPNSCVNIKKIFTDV

T1 sequence (Q09470 whole entry): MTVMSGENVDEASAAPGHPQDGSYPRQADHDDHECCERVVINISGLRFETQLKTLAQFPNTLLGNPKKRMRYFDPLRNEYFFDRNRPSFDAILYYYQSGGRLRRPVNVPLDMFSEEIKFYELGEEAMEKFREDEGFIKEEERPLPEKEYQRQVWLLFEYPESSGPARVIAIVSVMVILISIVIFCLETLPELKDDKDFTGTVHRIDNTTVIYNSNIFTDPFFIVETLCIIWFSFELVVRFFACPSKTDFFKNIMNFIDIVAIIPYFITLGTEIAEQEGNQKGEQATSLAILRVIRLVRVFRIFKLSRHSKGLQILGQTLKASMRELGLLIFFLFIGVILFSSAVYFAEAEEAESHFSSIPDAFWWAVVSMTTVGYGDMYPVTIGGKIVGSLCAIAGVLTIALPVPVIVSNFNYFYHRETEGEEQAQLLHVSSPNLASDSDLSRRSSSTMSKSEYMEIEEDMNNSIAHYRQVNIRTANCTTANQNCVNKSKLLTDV

Row | Compound | IC50 [1] | IC50 [2]
1 | CC[C@H](C)[C@@H]1NC(=O)[C@H](CCCCN)NC(=O)[C@@H](NC(=O)[C@H](CCCCN)NC(=O)[C@@H](NC(=O)[C@H](CC(N)=O)NC(=O)[C@@H](NC(=O)[C@@H](NC(=O)[C@@H](NC(=O)CN)C(C)C)[C@@H](C)CC)[C@@H](C)CC)C(C)C)CSSC[C@@H]2NC(=O)[C@H](CCCCN)NC(=O)CNC(=O)[C@H](Cc3ccccc3)NC(=O)[C@H](CCCNC(=N)N)NC(=O)[C@H](CCSC)NC(=O)CNC(=O)[C@H](C)NC(=O)[C@H](CCCCN)NC(=O)[C@H](CCCCN)NC(=O)[C@@H]3CSSC[C@@H](C(=O)N[C@H](C(=O)N[C@@H](Cc4cccc5ccccc45)C(=O)N[C@@H](CCCCN)C(=O)O)[C@@H](C)O)NC(=O)[C@H](Cc4c[nH]cn4)NC(=O)[C@H](CSSC[C@H](NC(=O)[C@H](CCC(N)=O)NC(=O)[C@H](CCCNC(=N)N)NC(=O)[C@H](CO)NC1=O)C(=O)N[C@@H](CC(C)C)C(=O)N[C@@H](CCC(=O)O)C(=O)N1CCC[C@H]1C(=O)N3)NC(=O)[C@H](CCCCN)NC(=O)CNC(=O)[C@H](CC(N)=O)NC(=O)[C@H](CCSC)NC2=O [P37Nal] (H-GVIINVKCKISRQCLEPCKKAGMRFGKCMNGKCHCT[1Nal]K-OH; disulfide 8-28, 14-33, 18-35) | 0.00674 nM | 0.0708 nM
2 | CC[C@H](C)[C@@H]1NC(=O)[C@H](CCCCN)NC(=O)[C@@H](NC(=O)[C@H](CCCCN)NC(=O)[C@@H](NC(=O)[C@H](CC(N)=O)NC(=O)[C@@H](NC(=O)[C@@H](NC(=O)[C@@H](NC(=O)CN)C(C)C)[C@@H](C)CC)[C@@H](C)CC)C(C)C)CSSC[C@@H]2NC(=O)[C@H](CCCCN)NC(=O)CNC(=O)[C@H](CCCNC(=N)N)NC(=O)[C@H](CCCNC(=N)N)NC(=O)[C@H](CCSC)NC(=O)CNC(=O)[C@H](C)NC(=O)[C@H](CCCCN)NC(=O)[C@H](CCCCN)NC(=O)[C@@H]3CSSC[C@@H](C(=O)N[C@H](C(=O)N4CCC[C@H]4C(=O)N[C@@H](CCCCN)C(=O)O)[C@@H](C)O)NC(=O)[C@H](Cc4c[nH]cn4)NC(=O)[C@H](CSSC[C@H](NC(=O)[C@H](CCC(N)=O)NC(=O)[C@H](CCCNC(=N)N)NC(=O)[C@H](CO)NC1=O)C(=O)N[C@@H](CC(C)C)C(=O)N[C@@H](CCC(=O)O)C(=O)N1CCC[C@H]1C(=O)N3)NC(=O)[C@H](CCCCN)NC(=O)CNC(=O)[C@H](CC(N)=O)NC(=O)[C@H](CCSC)NC2=O [F25R] (H-GVIINVKCKISRQCLEPCKKAGMRRGKCMNGKCHCTPK-OH; disulfide 8-28, 14-33, 18-35) | 0.817 nM | > 3.33 nM
3 | CC[C@H](C)[C@@H]1NC(=O)[C@H](CCCCN)NC(=O)[C@@H](NC(=O)[C@H](CCCCN)NC(=O)[C@@H](NC(=O)[C@H](CC(N)=O)NC(=O)[C@@H](NC(=O)[C@@H](NC(=O)[C@@H](NC(=O)CN)C(C)C)[C@@H](C)CC)[C@@H](C)CC)C(C)C)CSSC[C@@H]2NC(=O)[C@H](CCCCN)NC(=O)CNC(=O)[C@H](Cc3ccccc3)NC(=O)[C@H](CCCNC(=N)N)NC(=O)[C@H](CCSC)NC(=O)CNC(=O)[C@H](C)NC(=O)[C@H](CCCCN)NC(=O)[C@H](CCCCN)NC(=O)[C@@H]3CSSC[C@@H](C(=O)N[C@H](C(=O)N4CCC[C@H]4C(=O)N[C@@H](CCCCN)C(=O)O)[C@@H](C)O)NC(=O)[C@H](Cc4c[nH]cn4)NC(=O)[C@H](CSSC[C@H](NC(=O)[C@H](CCC(N)=O)NC(=O)[C@H](CCCNC(=N)N)NC(=O)[C@H](CO)NC1=O)C(=O)N[C@@H](CC(C)C)C(=O)N[C@@H](CCC(=O)O)C(=O)N1CCC[C@H]1C(=O)N3)NC(=O)[C@H](CCCCN)NC(=O)[C@H](CCCNC(=N)N)NC(=O)[C@H](CC(N)=O)NC(=O)[C@H](CCSC)NC2=O [G31R] | 0.00159 nM | 0.0222 nM
4 | CC[C@H](C)[C@@H]1NC(=O)[C@H](CCCCN)NC(=O)[C@@H](NC(=O)[C@H](CCCCN)NC(=O)[C@@H](NC(=O)[C@H](CC(N)=O)NC(=O)[C@@H](NC(=O)[C@@H](NC(=O)[C@H](CCCNC(=N)N)NC(=O)CN)[C@@H](C)CC)[C@@H](C)CC)C(C)C)CSSC[C@@H]2NC(=O)[C@H](CCCCN)NC(=O)CNC(=O)[C@H](Cc3ccccc3)NC(=O)[C@H](CCCNC(=N)N)NC(=O)[C@H](CCSC)NC(=O)CNC(=O)[C@H](C)NC(=O)[C@H](CCCCN)NC(=O)[C@H](CCCCN)NC(=O)[C@@H]3CSSC[C@@H](C(=O)N[C@H](C(=O)N4CCC[C@H]4C(=O)N[C@@H](CCCCN)C(=O)O)[C@@H](C)O)NC(=O)[C@H](Cc4c[nH]cn4)NC(=O)[C@H](CSSC[C@H](NC(=O)[C@H](CCC(N)=O)NC(=O)[C@H](CCCNC(=N)N)NC(=O)[C@H](CO)NC1=O)C(=O)N[C@@H](CC(C)C)C(=O)N[C@@H](CCC(=O)O)C(=O)N1CCC[C@H]1C(=O)N3)NC(=O)[C@H](CCCCN)NC(=O)CNC(=O)[C@H](CC(N)=O)NC(=O)[C@H](CCSC)NC2=O [V2R] (H-GRIINVKCKISRQCLEPCKKAGMRFGKCMNGKCHCTPK-OH; disulfide 8-28, 14-33, 18-35) | 0.0258 nM | 0.133 nM
5 | CC[C@H](C)[C@@H]1NC(=O)[C@H](CCCCN)NC(=O)[C@@H](NC(=O)[C@H](CCCCN)NC(=O)[C@@H](NC(=O)[C@H](CC(N)=O)NC(=O)[C@@H](NC(=O)[C@@H](NC(=O)[C@H](CCC(=O)O)NC(=O)CN)[C@@H](C)CC)[C@@H](C)CC)C(C)C)CSSC[C@@H]2NC(=O)[C@H](CCCCN)NC(=O)CNC(=O)[C@H](Cc3ccccc3)NC(=O)[C@H](CCCNC(=N)N)NC(=O)[C@H](CCSC)NC(=O)CNC(=O)[C@H](C)NC(=O)[C@H](CCCCN)NC(=O)[C@H](CCCCN)NC(=O)[C@@H]3CSSC[C@@H](C(=O)N[C@H](C(=O)N4CCC[C@H]4C(=O)N[C@@H](CCCCN)C(=O)O)[C@@H](C)O)NC(=O)[C@H](Cc4c[nH]cn4)NC(=O)[C@H](CSSC[C@H](NC(=O)[C@H](CCC(N)=O)NC(=O)[C@H](CCCNC(=N)N)NC(=O)[C@H](CO)NC1=O)C(=O)N[C@@H](CC(C)C)C(=O)N[C@@H](CCC(=O)O)C(=O)N1CCC[C@H]1C(=O)N3)NC(=O)[C@H](CCCCN)NC(=O)CNC(=O)[C@H](CC(N)=O)NC(=O)[C@H](CCSC)NC2=O [V2E] (H-GEIINVKCKISRQCLEPCKKAGMRFGKCMNGKCHCTPK-OH; disulfide 8-28, 14-33, 18-35) | 0.035 nM | 0.0362 nM
6 | CC[C@H](C)[C@@H]1NC(=O)[C@H](CCCCN)NC(=O)[C@@H](NC(=O)[C@H](CCCCN)NC(=O)[C@@H](NC(=O)[C@H](CC(N)=O)NC(=O)[C@@H](NC(=O)[C@@H](NC(=O)[C@@H](NC(=O)CN)C(C)C)[C@@H](C)CC)[C@@H](C)CC)C(C)C)CSSC[C@@H]2NC(=O)[C@H](CCCCN)NC(=O)CNC(=O)[C@H](Cc3ccccc3)NC(=O)[C@H](CCCNC(=N)N)NC(=O)[C@H](CCC(=O)O)NC(=O)CNC(=O)[C@H](C)NC(=O)[C@H](CCCCN)NC(=O)[C@H](CCCCN)NC(=O)[C@@H]3CSSC[C@@H](C(=O)N[C@H](C(=O)N4CCC[C@H]4C(=O)N[C@@H](CCCCN)C(=O)O)[C@@H](C)O)NC(=O)[C@H](Cc4c[nH]cn4)NC(=O)[C@H](CSSC[C@H](NC(=O)[C@H](CCC(N)=O)NC(=O)[C@H](CCCNC(=N)N)NC(=O)[C@H](CO)NC1=O)C(=O)N[C@@H](CC(C)C)C(=O)N[C@@H](CCC(=O)O)C(=O)N1CCC[C@H]1C(=O)N3)NC(=O)[C@H](CCCCN)NC(=O)CNC(=O)[C@H](CC(N)=O)NC(=O)[C@H](CCSC)NC2=O [M23E] (H-GVIINVKCKISRQCLEPCKKAGERFGKCMNGKCHCTPK-OH; disulfide 8-28, 14-33, 18-35) | 0.0104 nM | 0.0243 nM
